Assays:
[1] = system: CYP3A5; assay: Cutaneous expression and regulation by ATRA of additional CYP450s; format: in vivo
[2] = system: CYP1A1 mRNA expression; assay: CYP1A1 mRNA expression in skin of volunteer panel after topical chemicals; format: in vivo, human; conditions: topical application, data not shown
[3] = system: CYP2S1 mRNA expression; assay: CYP2S1 mRNA expression in skin after topical chemicals (Taqman quantitative real-time RT-PCR); format: in vivo, human; conditions: healthy volunteers, occluded 96 hours on buttock skin, vs control skin
[4] = system: human liver microsomes; assay: atRA metabolism by human liver microsomes (HPLC); format: in vitro ADME; conditions: confirmed with authentic standard
Procedure: (§1) E. Coli membranes co-expressing CYP2S1 and CPR were incubated with atRA as previously described^17. CYP2S1-derived atRA metabolites (FIG. 4A) were separated by HPLC and identified by comparison with the elution profile of human liver microsomes (FIG. 4B). Control incubations were performed in the absence of the NADPH regenerating system (FIG. 4C).
(§2) The CYP2S1 cDNA, a generous gift from Professor Oliver Hankinson, Department of Pathology and Laboratory Medicine, Jonsson Comprehensive Cancer Centre and Molecular Biology Institute, UCLA, Los Angeles was constructed and co-expressed with CPR in E. Coli as previously described^16. CYP2S1 metabolism of atRA was performed using HPLC analysis as previously described^17, using E. coli membranes co-expressing CYP2S1 and CPR and an NADPH regenerating system. Control reactions were performed in the absence of CYP2S1 and in the absence of the NADPH regenerating system. CYP2S1 metabolites were identified by comparison with elution times and UV profiles of atRA metabolites generated by human liver microsomes which had previously been identified using authentic standards.

[5] = biological target: T1, CYP2S1 (Homo sapiens, UniProt Q96SQ9); assay: atRA metabolism by heterologously expressed CYP2S1 (E. coli membranes co-expressing CYP2S1 and CPR, HPLC); format: in vitro ADME; conditions: NADPH regenerating system
T1 construct: made in house; host or cells: E. coli (membrane fraction)
T1 sequence (Q96SQ9 1-504): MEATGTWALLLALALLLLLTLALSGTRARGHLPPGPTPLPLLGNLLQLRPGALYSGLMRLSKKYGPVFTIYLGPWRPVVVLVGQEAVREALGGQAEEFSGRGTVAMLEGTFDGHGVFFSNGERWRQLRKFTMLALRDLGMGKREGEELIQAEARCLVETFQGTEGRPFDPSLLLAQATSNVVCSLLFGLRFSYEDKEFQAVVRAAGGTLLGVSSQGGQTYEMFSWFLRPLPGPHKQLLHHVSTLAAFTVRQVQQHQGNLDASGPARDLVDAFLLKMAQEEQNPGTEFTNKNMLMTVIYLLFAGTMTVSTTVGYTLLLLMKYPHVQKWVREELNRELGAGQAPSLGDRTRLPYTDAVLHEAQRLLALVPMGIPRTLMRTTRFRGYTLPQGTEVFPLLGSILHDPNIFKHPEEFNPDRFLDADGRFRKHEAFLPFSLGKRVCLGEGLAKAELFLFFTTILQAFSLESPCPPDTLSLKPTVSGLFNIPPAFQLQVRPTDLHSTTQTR
Procedure: as §1, §2

## CC1=C(/C=C/C(C)=C/C=C/C(C)=C/C(=O)O)C(C)(C)CCC1 [atRA, all-trans retinoic acid]
[1]
  inducibility of CYP3A5 in human skin: not inducible
[2]
  effect on CYP1A1 mRNA expression: suppressed
[3]
  individuals showing marked CYP2S1 induction (mRNA): 6/14
[4]
  formation of 4-oxo RA metabolite by human liver microsomes: produced by human liver microsomes
[5]
  atRA metabolites produced by CYP2S1: 4-OH-RA and 5,6-epoxy RA
  formation of 4-oxo RA metabolite by CYP2S1: did not appear to produce
